In US7741431B2, “Liposomes containing novel targeting and/or fusogenic peptides, preparations containing them and therapeutic use thereof” (The United States of America as represented by the …, priority 2005, dated 2010):
“Also recorded” adds a separate entry of the source.

Tests used:
[1] = test system: mast cells (RBL-2H3); type: cell-based
[2] = test system: lung epithelial cells (A-549); type: cell-based, human
[3] = Liposome fusion assay (Rhodamine B R18 dequenching)
From the text: Liposomes are picked-up by cells by endocytosis and form an endosome. Within a few minutes the pH in the endosome drops to 5 and degradation begins. In order to accelerate the fusion of the liposome with the endosome membrane and release its DNA content into the cytoplasm, fusogenic peptides (Plank et al., 1994, Puyal et al., 1994), triggered by the low pH, are integrated into the liposomes membrane (0.1-2%). The most suitable fusogenic peptide and its concentration in the liposome are selected, using in-vitro fluorescence method (Hoekstra et al., 1984) at different pH levels.
Rhodamine B (R18) quenching curve: Rhodamine is characterized by self-quenching, which increases linearly with increasing concentration of R18. […] A total fusion of the two types of liposomes would result in a reduction of R18 concentration or quenching by ˜50%. Since liposomes also tend to fuse with their own type, this high level of fusion can never be achieved.
Liposomes containing 8 Mol % of R18 are mixed with liposomes conjugated to the fusion peptide at pH 7.4 and the fluorescence is measured using […] at λ=550 nm and emission at λ=580 nm. The pH is adjusted to 5.0 by adding few drops of 1N HCl and the change in fluorescence is measured. The total fluorescence is then determined by treating the mixture with Triton X-100. […]

| Substance | binding / targeting to mast cells [1] | binding / targeting to lung epithelial cells [2] | activity as a fusogen [3] |
| --- | --- | --- | --- |
| SEQ ID NO: 1: targeting peptide whose sequence derives from endothelin-1, for lung mast cells and lung epithelial cells (CHLDIIW) | efficient targeting peptide; also recorded: high affinity | efficient targeting peptide; also recorded: high affinity |  |
| SEQ ID NO: 2: fusogenic peptide derived from the amphiphatic, pH-dependent peptide of influenza virus hemagglutinin (CGYWGDIMGEWGDEIFGEIAGFLG) |  |  | highly active |
